According to US10400010B2, “Structure-based peptide inhibitors of P53 aggregation as a new approach to cancer therapeutics” (THE REGENTS OF THE UNIVERSITY OF CALIFORNIA, priority 2013, dated 2019):
“Also recorded” adds a separate entry of the source.

Tests used:
[1] = biological target: T1, p53 aggregation (segment p53252-258, LTIITLE) (Homo sapiens, UniProt P04637); experiment: In vitro Thioflavin T aggregation assay; format: biochemical; settings: different concentrations, down to molar ratio 1 inhibitor to 10 p53 molecules
T1 construct: made in house; host or cells: chemical synthesis
Source text: The aggregation of p53 is monitored via Thioflavin T assay: an increase in Thioflavin T fluorescence is detected over time due to the formation of increasing amounts of amyloid to which the dye can specifically bind. […] The sequence of this segment, LTIITLE, is SEQ ID NO: 21.
One representative in vitro assay is the thioflavin T assay shown in FIG. 3 (Naiki, H., Higuchi, K., Hosokawa, M., and Takeda, T. (1989) Fluorometric determination of amyloid fibrils in vitro using the fluorescent dye, thioflavine T. Anal. Biochem., 177, 244-249). The assay can be performed using a target sequence peptide, such as LTIITLE (SEQ ID NO: 21), or it can be performed using full-length p53 (such as recombinant p53). In both cases, the peptide (e.g. LTIITLE) (SEQ ID NO: 21) or the p53 is placed in solution with thioflavin T and increasing concentrations of inhibitor. The assay is performed in a multiwall plate (e.g. a 384 well plate). This dye is amyloid specific and is only fluorescent when bound to amyloid aggregates. The fluorescence is measured over time, e.g. with a plate reader. Inhibition is detected as a delay in the onset of aggregation and/or less total amount of aggregates formed.
The designed inhibitors were synthesized and tested in an in vitro Thioflavin T aggregation assay (FIG. 3).

[2] = tested on: stable cell line derived from an ovarian cancer tumor (PA40 cells); experiment: p53 re-localization and refolding, DO-1 and PAb240 antibody stain; format: cell-based
Source text: A stable cell line derived from an ovarian cancer tumor is stained with the commercially available DO-1 antibody which recognizes any p53, irrespective of its structural state. […] The PAb240 commercial antibody recognizes misfolded p53, therefore loss of PAb240 antigeneicity reflects a change in the p53 population from misfolded to properly folded, functionally capable protein.
(§1) Properly folded p53 is rapidly degraded in cells as a control mechanism. Misfolded/aggregated p53 cannot be efficiently targeted for degradation therefore protein levels are high in the absence of the inhibitor. This is additional evidence of the ability of the INH-1R to generate a population of folded p53.

[3] = tested on: cancer cell lines (OVCAR-3, CAOV-3, WiDr, Detroit 562) and primary cells from ovarian cancer patients; experiment: Cell entry and co-localization of FITC labeled inhibitor by fluorescence microscopy; format: cell-based, human; settings: 24 hours
Source text: INH-1R CPP was covalently linked to a FITC fluorescent label and added to different cancer cell lines or primary cells directly obtained from ovarian cancer patients (as depicted here). […] The cell nuclei are stained with Hoechst 33342 (blue), while p53 is recognized by an anti-p53 antibody and stained in red. […] Protein aggregates are stained with the commercially available OC antibody (in red).
To render the inhibitors cell permeable, the inventors fused the peptide-inhibitor panel to a nine-residue poly arginine tag through a three-residue linker, of sequence RPI, derived from endogenous p53 sequence. To confirm their ability to enter cells, the cell penetrating INH-1R inhibitor was linked to a FITC moiety in order to detect the intracellular localization of the probe by fluorescence microscopy (FIG. 4). We treated different cancer cell lines, including but not limited to OVCAR-3, CAOV-3, WiDr, Detroit 562 as well as primary cells derived from cancer patients with the FITC labeled inhibitor for 24 hours. After extensive washes to remove unbound inhibitors, the cells were fixed in formaldehyde and p53 was stained using a commercially available p53 antibody. […] Additionally, the inhibitor was found co-localized with protein aggregates as stained by the conformation specific antibody OC (Kayed et al, 2007, FIG. 4B).

[4] = tested on: cancer cells bearing misfolded/aggregation-prone mutant p53; experiment: Cell viability, standard MTS assay, 2D culture; format: cell-based; settings: 24 hours
Experimental: (§2) B. and C. show one representative case of primary cells from ovarian cancer.
INH-1R caused cell death in a dose dependent manner with less than 50% of cancer cells surviving after only 24 hours of treatment with a dose of 10 μM in a 2D culture system as detected by a standard MTS assay (FIG. 7A). […] In this case cells were plated in 1:1 mixture of PrEGM:matrigel. After cell layer solidified, cells were overlaid with warm PrEGM media containing either the inhibitor or a scrambled control peptide at concentration ranging from 0.1 to 10 μM for 5 to 7 days.

[5] = tested on: OVCAR-3 cells bearing the aggregation prone p53 R248Q mutation (xenograft); experiment: OVCAR-3 xenograft tumor proliferation in vivo; design: species or system NOD/SCID mice
Experimental: A. Images of the xenografts from mice (n=3 for each group, one mouse had 2 xenografts) treated with INH-1R CPP, a scrambled peptide control, or vehicle for 14 days. […] C. Tumor volume was estimated daily.
In our in vivo studies, we attempted to mimic a post-surgical debulking situation in which patients with minimal residual tumor mass are administered chemotherapy. NOD/SCID mice were injected subcutaneously with OVCAR-3 cells bearing the aggregation prone p53 R248Q mutation and treated intraperitoneally with 15 mg/kg of either INH-1R as a single therapeutic agent, a control scrambled peptide, or vehicle daily for 14 days (FIG. 9).

OVCAR-3 cell lysates = experiment: p53 levels in cell lysates by Western Blot; format: cell-based; settings: 0, 1, 5 or 10 μM, 24 hours
Source text: The properly folded p53 (see FIG. 6) can now be degraded as is WT p53. The hyperstability due to misfolding/aggregation is lost, and the protein turnover is fast.
as §1

[6] = tested on: primary cells from ovarian cancer; experiment: Apoptosis (AnnexinV stain) and proliferation (Ki67 stain); format: cell-based; settings: increasing dosage
Source text: as §2

[7] = tested on: p53 target genes p21 and Mdm2; experiment: Up-regulation of p53 target genes by QPCR or RNAseq; format: cell-based; settings: tumor cells with p53 misfolding/aggregating mutations
Source text: Specificity and efficacy of INH-1R CPP was confirmed by up-regulation of p53 target genes only in tumor cells containing p53 misfolding/aggregating mutations.

OVCAR-3 cells [8] = experiment: Cell death by FACS (cell size and granularity); format: cell-based; settings: 10 μM, 24 hours
Experimental: Cells treated for 24 hours with either INH-1R or a control peptide were trypsinized and analyzed by FACS.

MCF-7 (WT p53) = experiment: p53 re-localization in WT p53 control cells; format: cell-based; settings: WT p53 bearing cells MCF 7
Source text: The structure-guided, rationally designed p53 amyloid inhibitors of the invention specifically target those cancer cells bearing p53 molecules having an aberrant conformation (e.g. aggregated or misfolded p53). […] We then tested the inhibitor on established cancer cell lines as well as on primary cells derived from serous ovarian cancer patients in order to confirm the clinical relevance of our findings. Our inhibitor is designed to specifically target those tumor cells expressing an altered misfolded form of p53 and should have no effect on cells bearing functional, properly folded p53 or aggregation-incompetent p53 mutants. To confirm this, we included several controls. Three established cell lines, one bearing WT p53 (MCF-7) and two which were previously characterized for their p53 aggregation status, one with a non-aggregating mutation (WiDr) and one with a p53 aggregation prone mutation (Detroit 562), were used as negative and positive controls. One of the effects of the inhibitor was to cause re-localization of p53 from the cytosolic compartment to the nucleus (FIG. 5).

OVCAR-3 cells [9] = experiment: Apoptosis and necrosis, combined Hoechst/PI/YO-PRO-1 stain; format: cell-based; settings: 24 hours
Experimental: OVCAR-3 cells were treated for 24 hours with the indicated concentrations of either INH-1R CPP or a scrambled inhibitor sequence. Hoechst (blue) stains all nuclei while YO-PRO-1 (green) only stains apoptotic cells and propidium iodide (red) stains late apoptotic/necrotic cells.

[10] = Serum concentration by MRM mass spectrometry (pharmacokinetic profile); format: in vivo, Nude mice
Experimental: Nude mice were injected in the flank with OVCAR-3 cells and the resulting xenografts were allowed to grow for two weeks. The mice were then treated for three days via IP with 15 mg/kg of INH-1R CPP peptide or scrambled control peptide. They were divided in groups of two and sacrificed at 1, 2, 4, 8, 12 and 24 hours post final peptide injection. Two naïve mice were sacrificed before treatment to obtain a reference value. Peak serum concentration of INH-1R CPP (as well as control peptide) was detected at 1 hour post injection. Average of two mice are shown.
The peptide concentration decreased to approximately 0.3 μM 2 hours post infusion, and remained stable for up to 12 hours (FIG. 10). Given the relative stability of the peptide in serum, IV administration is an acceptable alternative route of administration.

| Time serum concentration remained stable ([10]; 15 mg/kg IP) | Tmax ([10]; nude, mouse, serum, 15 mg/kg IP for three days, read-out: Time of peak serum concentration post injection) [h] | Cmax ([10]; nude, mouse, serum, 15 mg/kg IP, 1 hour after injection, read-out: Serum peak concentration) [nM] | level at time molar at 2 h ([10]; nude, mouse, serum, 15 mg/kg IP, 2 hours, read-out: Serum concentration 2 hours post infusion) [nM] | Structure (SMILES) | Inhibition of p53 aggregation (Thioflavin T fluorescence over time) [1] | Recognition of p53 by PAb240 (misfolded p53) [2] | Ability to enter cells (intracellular localization) [3] | Cancer cells surviving (cell viability, MTS) ([4]; 10 µM) | p53 target genes MDM2 and p21 in residual tumor tissue ([5]; 15 mg/kg IP daily for 14 days) | Xenograft mass reduction in weight ([5]; 15 mg/kg intraperitoneally daily for 14 days) [%] | Total amount of p53 (OVCAR-3 cell lysates) | Apoptosis (AnnexinV stain) [6] | Cell proliferation (Ki67 stain) [6] | Up-regulation of p53 target genes [7] | Cell size and granularity (FACS) (OVCAR-3 cells [8]) | Re-localization of p53 from cytosol to nucleus (MCF-7 (WT p53)) | Apoptosis and necrosis (Hoechst/PI/YO-PRO-1 stain) (OVCAR-3 cells [9]) | Cancer cells surviving (cell viability, MTS) ([4]; 10 μM, 2D culture) |
| --- | --- | --- | --- | --- | --- | --- | --- | --- | --- | --- | --- | --- | --- | --- | --- | --- | --- | --- |
| – | – | – | – | CC[C@H](C)[C@H](NC(=O)[C@H](CCCNC(=N)N)NC(=O)[C@@H](NC(=O)[C@H](CC(C)C)NC(=O)[C@@H](NC(=O)[C@@H]1CCCN1C(=O)[C@H](CCCNC(=N)N)NC(=O)[C@H](CCCNC(=N)N)NC(=O)[C@H](CCCNC(=N)N)NC(=O)[C@H](CCCNC(=N)N)NC(=O)[C@H](CCCNC(=N)N)NC(=O)[C@H](CCCNC(=N)N)NC(=O)[C@H](CCCNC(=N)N)NC(=O)[C@H](CCCNC(=N)N)NC(=O)[C@H](CCCNC(=N)N)NC(=O)[C@@H](N)CCCNC(=N)N)[C@@H](C)CC)[C@@H](C)O)C(=O)N[C@H](C(=O)N[C@@H](CC(C)C)C(=O)N[C@@H](CCC(=O)O)C(=O)O)[C@@H](C)O [INH-1R] | delay the aggregation onset and lower the total amount of aggregates present, in a concentration dependent fashion; also recorded: delayed the onset of aggregation and lowered the amount of aggregates present at all concentrations tested | failed to be recognized by the antibody PAb240 | able to penetrate the cell membrane, but also to actually enter the nucleus and co-localize with its target, p53 | less than 50% | pronounced p21 and MDM2 activation | 75 | decreasing in a dose dependent manner | increase in apoptosis | decrease in cell proliferation | up-regulation of p53 target genes only in tumor cells bearing aggregation-prone mutations | a decrease in cell size and increase in granularity | not observed | Apoptosis as well as necrosis were induced specifically | – |
| up to 12 hours | 1 | ~1200 | ~300 | CC[C@H](C)[C@H](NC(=O)[C@H](CCCNC(=N)N)NC(=O)[C@@H](NC(=O)[C@H](CC(C)C)NC(=O)[C@@H](NC(=O)[C@@H]1CCCN1C(=O)[C@H](CCCNC(=N)N)NC(=O)[C@H](CCCNC(=N)N)NC(=O)[C@H](CCCNC(=N)N)NC(=O)[C@H](CCCNC(=N)N)NC(=O)[C@H](CCCNC(=N)N)NC(=O)[C@H](CCCNC(=N)N)NC(=O)[C@H](CCCNC(=N)N)NC(=O)[C@H](CCCNC(=N)N)NC(=O)[C@H](CCCNC(=N)N)NC(=O)[C@@H](N)CCCNC(=N)N)[C@@H](C)CC)[C@@H](C)O)C(=O)N[C@H](C(=O)N[C@@H](CC(C)C)C(=O)N[C@@H](CCC(=O)O)C(=O)O)[C@@H](C)O [INH-1R CPP, RRRRRRRRRRPILTRITLE] | – | – | – | – | – | – | – | – | – | – | – | – | – | Dose dependent reduction of cell viability |
